Earlier results, collected in US20040048919A1, “Compositions and methods for reduction of inflammatory symptoms and/or biomarkers in female subjects” (priority 2002, published 2004).

Details: 3.6 gm DHA per day (50x average dietary intake)

CC/C=C\C/C=C\C/C=C\C/C=C\C/C=C\C/C=C\CCC(=O)O [DHA, all-cis 4,7, 10, 13, 16, 19-docosahexaenoic acid]
toxicities on ingestion by humans: no apparent toxicities
